Entries after “also recorded” stand apart in the source; their conditions may differ.
Key:
PfPK9 = assay: UBC13 phosphorylation by PfPK9 (ADP luminescence assay); type: biochemical, P. falciparum; conditions: compared to DMSO
Procedure: Recombinant protein expression and enzyme activity assay. Recombinant GST-tagged PfPK9 was expressed in E. coli BL21(DE3) cells, purified to homogeneity, and the GST tag was cleaved with PreScission Protease (GE Healthcare). To test for inhibition of PfPK9, the ADP detection assay ADP-Glo (Promega) was used to determine ATPase activity of PfPK9 in the presence of the PfUBC13 protein substrate when treated with compounds 1 and 5. Approximately 500 nM PfPK9 was incubated with either compound (10 μM or 500 μM) for 5 min at RT in buffer containing 40 mM Tris, pH 7.5, 20 mM MgCl2, 2 mM MnCl2 and 1 mM DTT prior to assay initiation with 100 μM ATP. The assay was performed in white low-volume 384-well plates (Corning #3824) in triplicate. The assay plate was sealed and subsequently incubated for 8 hrs at 37° C. before ADP detection per manufacturer instructions. The final assay volume was 5 μL with a final concentration of 1% DMSO. A negative control was performed in 1% DMSO and heat inactivated PfPK9 (80° C. for 5 min) was used as a positive control. The luminescence intensity in each well was measured on an EnVision system. Data were normalized to the average luminescence signal of the negative control to provide relative ADP concentrations and graphs were constructed in GraphPad Prism. Data analyses were conducted from three independent experiments. […]

[1] = tested on: K63-linked ubiquitination; assay: Western blot for K63-linked ubiquitination in Plasmodium blood stage; type: cell-based, P. falciparum; conditions: 0.001-100 μM, 24 hr, ring-stage blood stage parasites
Procedure: P. falciparum asexual blood-stage culture. P. falciparum 3D7 isolate was maintained under standard conditions in complete culturing medium [10.44 g/L RPMI 1640 (Invitrogen), 5.94 g/L HEPES (Invitrogen), 50 mg/L hypoxanthine (Sigma), 2.02 g/L sodium bicarbonate (Sigma), 5 g/L albuMAX II (Invitrogen), 25 mg/L gentamicin (Sigma), pH 7.2]. Parasite cultures were supplied with human red blood cells (Gulf Coast Regional Blood Center) at 1% hematocrit. To obtain synchronous cultures, Plasmodium parasites (at least 50% parasites were at the early-ring stage) were pelleted at 300×g for 7 min using a low brake setting and treated with 25 volume 5% D-sorbitol (Sigma) at 37° C. for 10 min. Treated parasites were then harvested and washed with 25 volume of complete culturing medium using the aforementioned centrifugation protocol, and diluted with the complete medium to 1% hematocrit to maintain the parasite culture at 37° C. and 5% CO2.
Protein extraction and Western blot for K63-linked ubiquitination in Plasmodium blood stage. […] Total protein lysates were heated in SDS loading buffer for 5 min at 80° C., analyzed on 4-20% Tris-Glycine polyacrylamide gels (Novex, Life Technologies) and subsequently transferred to nitrocellulose membranes. […]

TAK1 = TAK1 (Homo sapiens, UniProt O43318); assay: Kinase profiling (Dundee), TAK1; type: biochemical
TAK1, sequence (O43318 with tags, fused parts or gaps limits assumed): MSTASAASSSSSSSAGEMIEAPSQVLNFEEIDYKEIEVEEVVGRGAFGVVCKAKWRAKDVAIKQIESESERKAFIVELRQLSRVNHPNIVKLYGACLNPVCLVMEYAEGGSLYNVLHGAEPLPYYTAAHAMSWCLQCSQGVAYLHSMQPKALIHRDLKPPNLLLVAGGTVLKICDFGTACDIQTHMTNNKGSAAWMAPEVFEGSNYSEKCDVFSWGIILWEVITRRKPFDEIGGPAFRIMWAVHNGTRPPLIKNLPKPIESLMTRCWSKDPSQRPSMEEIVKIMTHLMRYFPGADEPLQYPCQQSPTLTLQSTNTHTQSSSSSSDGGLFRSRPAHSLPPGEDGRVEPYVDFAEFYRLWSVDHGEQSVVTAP
Procedure: (§1) Kinase selectivity profiling. The selectivity profile of HS-206 to inhibit mammalian kinases was tested against a panel of 140 kinases at a single concentration of 10 μM. Tests were performed using a radiolabeld (^33P-ATP) filter-binding assay at the International Centre for Kinase Profiling at the University of Dundee, UK (http://www.kinase-screen.mrc.ac.uk/).
(§2) This panel contains members of all major kinase families, including tyrosine kinases (TK), tyrosine kinase-like (TKL), sterile serine/threonine (STE), and CDK/MAPK/GSK/CLK (CMGC). […] For these kinases, IC50 values were determined (Table 1).

MINK1 = MINK1 (Homo sapiens, UniProt Q8N4C8); assay: Kinase profiling (Dundee), MINK1; type: biochemical; conditions: 10 μM
MINK1, sequence (Q8N4C8 whole entry): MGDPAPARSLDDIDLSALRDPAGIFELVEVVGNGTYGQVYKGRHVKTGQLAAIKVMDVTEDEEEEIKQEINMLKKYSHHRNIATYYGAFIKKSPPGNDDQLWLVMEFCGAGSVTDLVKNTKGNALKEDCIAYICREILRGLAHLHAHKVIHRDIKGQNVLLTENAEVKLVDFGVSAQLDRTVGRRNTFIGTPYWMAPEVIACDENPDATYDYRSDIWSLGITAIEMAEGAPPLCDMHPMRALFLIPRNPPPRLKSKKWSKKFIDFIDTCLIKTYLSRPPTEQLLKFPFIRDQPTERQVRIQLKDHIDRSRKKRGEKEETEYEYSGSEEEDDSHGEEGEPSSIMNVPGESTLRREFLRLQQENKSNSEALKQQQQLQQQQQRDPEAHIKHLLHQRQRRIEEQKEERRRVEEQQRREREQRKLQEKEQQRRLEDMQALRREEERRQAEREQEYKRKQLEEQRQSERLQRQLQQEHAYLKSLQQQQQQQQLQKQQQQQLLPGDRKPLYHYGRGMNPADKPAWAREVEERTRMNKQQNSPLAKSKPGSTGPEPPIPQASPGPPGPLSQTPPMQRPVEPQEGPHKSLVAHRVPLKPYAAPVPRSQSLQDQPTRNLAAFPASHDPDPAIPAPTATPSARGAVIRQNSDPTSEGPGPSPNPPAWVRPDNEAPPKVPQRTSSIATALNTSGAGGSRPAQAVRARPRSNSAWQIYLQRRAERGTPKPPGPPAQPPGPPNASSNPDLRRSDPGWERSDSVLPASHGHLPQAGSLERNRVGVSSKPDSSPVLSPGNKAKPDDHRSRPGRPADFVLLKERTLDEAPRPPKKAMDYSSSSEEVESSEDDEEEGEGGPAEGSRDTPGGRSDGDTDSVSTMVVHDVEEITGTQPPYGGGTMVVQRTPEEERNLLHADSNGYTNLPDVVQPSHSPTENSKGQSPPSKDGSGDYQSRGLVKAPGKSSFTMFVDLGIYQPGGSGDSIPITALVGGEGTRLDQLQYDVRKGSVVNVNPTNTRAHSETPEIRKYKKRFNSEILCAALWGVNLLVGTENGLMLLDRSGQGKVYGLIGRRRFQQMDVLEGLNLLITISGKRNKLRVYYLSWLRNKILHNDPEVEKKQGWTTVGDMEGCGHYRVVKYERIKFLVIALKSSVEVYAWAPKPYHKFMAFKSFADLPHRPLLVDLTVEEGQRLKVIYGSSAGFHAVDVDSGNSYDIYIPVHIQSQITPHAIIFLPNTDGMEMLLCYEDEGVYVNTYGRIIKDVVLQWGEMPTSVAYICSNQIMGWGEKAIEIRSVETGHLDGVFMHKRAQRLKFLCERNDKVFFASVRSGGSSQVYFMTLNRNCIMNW
Procedure: as §1, §2

panel of 140 kinases = assay: Kinase selectivity profiling, 33P-ATP filter-binding assay (Dundee); type: biochemical; conditions: of the 140 kinases, 10 μM
Procedure: as §1, §2

IRAK4 = IRAK4 (Homo sapiens, UniProt Q9NWZ3); assay: Kinase profiling (Dundee), IRAK4; type: biochemical
IRAK4, sequence (Q9NWZ3 whole entry): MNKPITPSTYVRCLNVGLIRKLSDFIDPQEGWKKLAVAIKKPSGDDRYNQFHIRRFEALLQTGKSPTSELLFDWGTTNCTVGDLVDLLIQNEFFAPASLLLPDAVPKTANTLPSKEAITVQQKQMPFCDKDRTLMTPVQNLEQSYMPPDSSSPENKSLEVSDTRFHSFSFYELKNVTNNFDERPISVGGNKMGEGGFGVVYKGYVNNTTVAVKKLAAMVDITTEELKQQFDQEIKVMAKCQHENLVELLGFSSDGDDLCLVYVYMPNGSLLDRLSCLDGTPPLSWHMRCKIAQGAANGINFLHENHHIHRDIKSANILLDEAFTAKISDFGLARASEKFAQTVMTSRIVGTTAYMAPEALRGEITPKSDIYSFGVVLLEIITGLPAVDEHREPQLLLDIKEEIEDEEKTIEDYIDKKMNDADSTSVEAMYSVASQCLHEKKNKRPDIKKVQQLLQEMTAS
Procedure: as §1, §2

GCK = GCK (Homo sapiens, UniProt Q12851); assay: Kinase profiling (Dundee), GCK; type: biochemical; conditions: 10 μM
GCK, sequence (Q12851 whole entry): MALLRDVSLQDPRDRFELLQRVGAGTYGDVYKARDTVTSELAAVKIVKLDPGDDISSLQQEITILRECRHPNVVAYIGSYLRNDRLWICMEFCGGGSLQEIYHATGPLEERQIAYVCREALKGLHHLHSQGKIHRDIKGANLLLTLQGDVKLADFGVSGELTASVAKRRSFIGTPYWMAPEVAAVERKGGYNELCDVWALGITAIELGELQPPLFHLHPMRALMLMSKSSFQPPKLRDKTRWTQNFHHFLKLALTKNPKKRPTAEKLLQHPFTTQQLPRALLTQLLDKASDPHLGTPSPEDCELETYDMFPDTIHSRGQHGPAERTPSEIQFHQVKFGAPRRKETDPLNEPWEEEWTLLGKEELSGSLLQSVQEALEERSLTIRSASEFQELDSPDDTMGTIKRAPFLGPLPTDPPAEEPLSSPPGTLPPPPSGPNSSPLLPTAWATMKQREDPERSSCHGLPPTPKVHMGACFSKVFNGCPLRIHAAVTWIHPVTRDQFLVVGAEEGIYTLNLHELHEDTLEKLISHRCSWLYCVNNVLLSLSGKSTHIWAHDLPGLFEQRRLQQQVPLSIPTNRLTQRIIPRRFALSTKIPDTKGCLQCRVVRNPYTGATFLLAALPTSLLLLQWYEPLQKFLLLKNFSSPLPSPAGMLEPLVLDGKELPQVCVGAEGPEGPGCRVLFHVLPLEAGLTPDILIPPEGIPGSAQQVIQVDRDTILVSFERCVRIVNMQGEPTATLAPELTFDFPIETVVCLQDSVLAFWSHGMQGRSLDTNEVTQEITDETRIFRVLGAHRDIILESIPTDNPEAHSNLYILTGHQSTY
Procedure: as §1, §2

[2] = tested on: TAK1 downstream signaling (IKK, p38, NFκB) in Hela cells; assay: TNFα dependent signaling in Hela cells; type: cell-based
Procedure: In order to investigate the effects of HS-206 on cellular signaling, MDA-MB-231 and Hela cells were pretreated with 10 μM HS-206 for 2 h and stimulated with TNFα (FIG. 8).

ATP-binding proteins = assay: ATP-beads off-target elution, HepG2 whole-cell lysates; conditions: uninfected HepG2 lysate; compared to DMSO control

CCCn1c(NC(=O)c2cccc(C(N)=O)c2)nc2ccccc21 [HS-206 (1), (E)-N-(1-Propyl-1,3-dihydro-2H-benzo[d]imidazol-2-ylidene)isophthalamide]
UBC13 phosphorylation by PfPK9 (PfPK9): significantly decreased
levels of K63-linked ubiquitinated proteins [1]: dose-dependent decrease
IC50 (TAK1): 0.0095 ± 0.002 µM
inhibition at 10 µM (TAK1; 10 μM): > 90%
inhibition at 10 µM (MINK1): > 90%
number of kinases with ≥80% inhibition (panel of 140 kinases): 11
IC50 (IRAK4): 0.12 ± 0.03 µM
inhibition at 10 µM (IRAK4; 10 μM): > 90%
inhibition at 10 µM (GCK): > 90%
TNFα dependent signaling (activation of IKK and p38) ([2]; 10 μM, 2 h pretreatment, TNFα stimulation): inhibited activation of IKK and p38; also recorded: inhibits TNFα dependent signaling
dose-dependent inhibition of signaling upon TNFα stimulation ([2]; Hela cells): inhibits p38 and NFκB signaling in a dose-dependent manner; also recorded: dose-dependent inhibition of JNK and NFκB signaling
elution of ATP-binding proteins from ATP-sepharose beads (ATP-binding proteins): did not lead to any significant elution of ATP-binding proteins

Reference: patent publication US11767298B2, “Substituted benzimidazoles as inhibitors of transforming growth factor-β kinase” (Duke University, priority 2016, dated 2023)
